Measurements reported in patent publication US20110104074A1, “METHODS FOR TARGETED CANCER TREATMENT AND DETECTION” (UNIVERSITY OF LOUISVILLE RESEARCH FOUNDATION, INC., priority 2008, published 2011).
Ends that are not written are not given here.

Assays:
[1] = system: ovarian epithelial tumor cells lines (A2780, CAOV3, and UCI), and a cisplatin-resistant cell line (A2780/CP70); test: Cell viability (MTT, 96-titer kit) in ovarian tumor cell lines; settings: concentrations from 1 to 5 nM; cisplatin-sensitive and cisplatin-resistant cell lines
[2] = system: A2780 ovarian tumor cells; test: Uptake of doxorubicin by ovarian tumor cells in vitro (fluorometric); assay type: cell-based; settings: 5 nM DOX
Procedure: To determine the uptake of doxorubicin by ovarian tumor cells in vitro, ovarian tumor cells (A2780) were plated in 6-well plates. After 24 hrs of incubation, the medium was replaced with fresh medium and cells were then treated with PBS, free DOX (DOX concentration=5 nM), DOX-NPs (5 nM DOX), or LHRH-NP-DOXs (5 nM DOX). After 2, 4, and 24 hrs of incubation, cells were rinsed with PBS and scrapped off the plates and centrifuged. The pellets were resuspended in lysis buffer [[…] sucrose, 5 mM TrisHCl, 1 mM MgSO4, 1 mM CaCl2 (pH 7.6)] and homogenized using a polytron homogenizer. A 200:1 dilution of the homogenate from each sample was then transferred in triplicate to 2 ml centrifuge tubes and 100:1 of 10% (v/v) Triton X-100, 200:1 of water, and 1,500:1 of acidified isopropanol (0.75 N HCl) was added. The tubes were vortexed to ensure complete mixing and doxorubicin was extracted overnight at −20° C. The next day, the samples were thawed to room temperature, and then centrifuged at 15,000×g for 20 min. The supernatant was collected. Doxorubicin was measured fluorometrically (EX485 nm/EM590 nm) as described previously (3).

LHRH receptor = target: T1, LHRH receptor (Mus musculus, UniProt Q01776); test: pCRE-luciferase reporter assay in LβT2 cells for binding to cell surface LHRH receptors; assay type: cell-based; settings: 6 hrs treatment, read-out: binding affinities (IC50 values)
T1 construct: endogenous in cells; host or cells: LβT2 mouse gonadotrope tumor cell line
T1 sequence (Q01776 1-327): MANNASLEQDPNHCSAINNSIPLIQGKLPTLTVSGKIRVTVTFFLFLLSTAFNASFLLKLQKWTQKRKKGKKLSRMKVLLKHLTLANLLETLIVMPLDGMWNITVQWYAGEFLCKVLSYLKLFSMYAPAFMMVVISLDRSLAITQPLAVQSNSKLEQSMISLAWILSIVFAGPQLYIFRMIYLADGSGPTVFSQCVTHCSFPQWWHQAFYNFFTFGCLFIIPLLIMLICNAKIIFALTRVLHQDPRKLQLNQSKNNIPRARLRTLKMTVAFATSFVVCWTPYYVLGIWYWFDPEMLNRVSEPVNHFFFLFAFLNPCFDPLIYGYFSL
Procedure: To determine if LHRH, when conjugated to gold particles or FNPs, retained its binding affinity to the luteinizing hormone-releasing hormone receptor and its biological activity, the binding of LHRH, LHRH-NP-DOXs, and LHRH-FNP-DOXs to cell surface LHRH receptors was first examined For this purpose, a mouse gonadotrope tumor cell line (LβT2) was used that expresses high levels of high affinity LHRH receptors (82). The LβT2 cells were plated on 6-well plates. After 24 hrs, the cells were transfected with a reporter gene construct, pCRE-luciferase plasmid, as described previously (82). After 24 hrs of transfection, the medium was replaced with serum free medium, followed by incubation for 4 hrs, and then treatment of the cells with various concentrations of LHRH or LHRH-NP-DOXs for 6 hrs. Cells were then lysed and assayed for luciferase activity using a luciferase assay kit (Promega, Madison, Wis.). Binding of LHRH or LHRH-NP-DOX particles was calculated and compared as described previously (82). Experiments were repeated three times for every new preparation.

Row | IC50 (LHRH receptor) [pM] | Compound | efficacy on cell death [1] | doxorubicin found in cells compared to LHRH-NP-DOXs ([2]; after 24 hrs) | doxorubicin found in cells ([2]; within 4 hrs)
1 | – | LHRH-DOX (QHWSYGLRPG; also: doxorubicin conjugate; UniProt P01148 24-33, looked up) | ineffective | – | –
2 | – | COc1cccc2c1C(=O)c1c(O)c3c(c(O)c1C2=O)C[C@@](O)(C(=O)CO)C[C@@H]3O[C@H]1C[C@H](N)[C@H](O)[C@H](C)O1 [DOX, doxorubicin, reference compound] | ineffective | significantly lower | no detectable amount
3 | 100 | CC(C)C[C@H](NC(=O)[C@@H](Cc1c[nH]c2ccccc12)NC(=O)[C@H](Cc1ccc(O)cc1)NC(=O)[C@H](CO)NC(=O)[C@H](Cc1c[nH]c2ccccc12)NC(=O)[C@H](Cc1c[nH]cn1)NC(=O)[C@@H]1CCC(=O)N1)C(=O)N[C@@H](CCCNC(=N)N)C(=O)N1CCC[C@H]1C(=O)NCC(N)=O [LHRH, p-Glu-His-Trp-Ser-Tyr-D-Trp-Leu-Arg-Gly-NH2, reference compound] | ineffective | – | –
